Data from US20250049698A1, “BIOACTIVE SERUM FRACTIONS FROM FRESH ROSE FLOWERS AND METHODS FOR THEIR PREPARATION AND USES” (ISP INVESTMENTS LLC, priority 2021, published 2025).

Experiment: DPPH free radical scavenging assay
Type: biochemical
Conditions: positive control; dilution from 5% (w/v) stock solution
Description: DPPH assay provides an easy and rapid way to evaluate potential antioxidants. A free radical is an atom or molecule that has one or more unpaired electrons. The evidence is that reactive species of oxygen (O2-, H2O2, and NO2+) play an important role in inflammation, neurodegenerative disorders, and cancer, etc. Antioxidants can react with the nitrogen centered radical DPPH (2,2-Diphenyl-1-Picrylhydrazyl) and convert it to the non-radical 2,2-Diphenyl-1-Picrylhydrazine. The changes in color (from deep violet to light yellow) were read at 517 nm after 60 min of reaction using a UV/VIS Spectrophotometer. DPPH free radical scavenging method offers the first approach for evaluating the antioxidant potential of a compound or extract. DPPH free radical scavenging activity was determined to assess antioxidant activities for test articles by following protocol. DPPH (Sigma-Aldrich, 300267, St. Louis, MO, USA) solution of 0.06 mM in absolute methanol was prepared. Test articles with different concentrations (20 μl) were mixed with 180 μl of DPPH solution to obtain a total of 200 μl per well in a 96-well plate. After 60 min incubation at room temperature in the dark, the absorbance was measured at 517 nm by using a microplate spectrophotometer Biotek Synergy 2 (Biotek Instruments Inc, Winooski, VT, USA). […] The ability to scavenge DPPH radicle was calculated as % inhibition. […]

O=C1O[C@H]([C@@H](O)CO)C(O)=C1O [L-(+)-ascorbic acid (Vitamin C), L-(+)-ascorbic acid]
DPPH free radical scavenging IC50: 0.01 % (v/v)
